This note sets out measurements from ChEMBL document CHEMBL1201862, “PubChem BioAssay data set” (2004).

Some test systems named below: LOX IMVI; SF-539; EKVX; UACC-62; NCI-H460; M14; NCI-H23; CAKI-1; SW-620; MDA-MB-231; SN12C; SK-MEL-2; MDA-MB-435; OVCAR-3; KM12; IGROV-1; T47D; HCT-15; 786-0; MDA-N.
Assay in all cases: NCI anticancer screen, dose series, 48 h

SMILES strings stand for the structures.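 Where inhibition never reached the appropriate level, the endpoint shown equals the highest concentration tested. Otherwise, values were interpolated linearly from a five-concentration, 48-hour dose response in 96-well plates. GI50 = concentration required for 50% inhibition of growth.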 Activity calls are given as the source filed them. Cut-off read from the data, not from the text of the source: active = GI50 up to about 1.1 µM and inactive = higher.

Take `CC1(C)OC2COC(c3n[nH]c4c(=O)[nH]c(=O)[nH]c34)C2O1` (stereo not given): the GI50 in the experiment on LOX IMVI, in the experiment on SF-539, in the experiment on EKVX, with UACC-62, in the experiment with NCI-H460 and in the experiment on M14 was > 100 µM (inactive) each time. The GI50 with NCI-H23, in the experiment on CAKI-1, in the experiment on SW-620, with MDA-MB-231, with SN12C and in the experiment on SK-MEL-2 was > 100 µM (inactive) each time. For the same molecule, the GI50 with MDA-MB-435 is > 100 µM (inactive); with OVCAR-3 it was > 100 µM (inactive); in the experiment with KM12, > 100 µM (inactive); in the experiment with IGROV-1 it was > 100 µM (inactive); in the experiment with T47D it was > 100 µM (inactive); in the experiment with HCT-15, above 100 µM. The GI50 with 786-0 and with MDA-N was > 100 µM (inactive) each time.
In the case of `CC(C)(C)C(=O)CC1=Nc2ccccc2SC1(O)CC(=O)C(C)(C)C` (stereo not given), the GI50 in the experiment on LOX IMVI was 17.1 µM (inactive); with SF-539 it was 22.9 µM (inactive); in the experiment on EKVX it was 16.2 µM (inactive); with UACC-62, 11.8 µM (inactive); in the experiment with NCI-H460, 13.5 µM (inactive); with M14, 29.8 µM (inactive). In addition, the GI50 is 24.1 µM (inactive) with NCI-H23; 14.7 µM (inactive) with CAKI-1; 25.5 µM (inactive) in the experiment with SW-620; 17.8 µM (inactive) in the experiment with MDA-MB-231; 21 µM (inactive) in the experiment with SN12C; 13.7 µM (inactive) in the experiment with SK-MEL-2. The GI50 with MDA-MB-435 was 22.6 µM (inactive); in the experiment on OVCAR-3, 17 µM (inactive); in the experiment with KM12, 20.1 µM (inactive); in the experiment on IGROV-1, 16 µM (inactive); in the experiment on T47D, 19.7 µM (inactive); in the experiment on HCT-15, 15.3 µM. The figures for the GI50 in the experiment on 786-0 and in the experiment with MDA-N were 23.4 µM (inactive) and 32.7 µM (inactive), respectively.
With `COc1cccc(N2C(=O)C3c4[nH]c5ccccc5c4C4c5ccccc5CCC4C3C2=O)c1` (stereo not given), the GI50 was > 10 µM (inactive) in the experiment on LOX IMVI; 2.5 µM (inactive) with SF-539; > 9.31 µM (inactive) in the experiment on EKVX; > 10 µM (inactive) in the experiment with UACC-62; 4.82 µM (inactive) in the experiment on NCI-H460; 4.92 µM (inactive) in the experiment on M14. Moreover, the GI50 is > 10 µM (inactive) in the experiment on NCI-H23; > 10 µM (inactive) in the experiment on CAKI-1; > 9.14 µM (inactive) with SW-620; 5.06 µM (inactive) with MDA-MB-231; > 6.03 µM (inactive) with SN12C; > 10 µM (inactive) in the experiment with SK-MEL-2. The GI50 was > 7.5 µM (inactive) in the experiment on MDA-MB-435; 5.5 µM (inactive) with OVCAR-3; > 10 µM (inactive) in the experiment on KM12; > 7.98 µM (inactive) with IGROV-1; > 10 µM (inactive) in the experiment on T47D; above 10 µM with HCT-15. The figures for the GI50 with 786-0 and in the experiment with MDA-N were 2.9 µM (inactive) and > 8.28 µM (inactive), respectively.
Regarding `O=C(Nc1ccc2nc(O)n[n+]([O-])c2c1)C(F)(F)F`, the GI50 in the experiment on LOX IMVI, in the experiment with SF-539, in the experiment with EKVX, in the experiment on UACC-62, in the experiment with NCI-H460 and in the experiment with M14 was > 100 µM (inactive) each time. Moreover, the GI50 with NCI-H23, in the experiment with CAKI-1, in the experiment with SW-620, in the experiment with MDA-MB-231, in the experiment with SN12C and in the experiment with SK-MEL-2 was > 100 µM (inactive) each time. In addition, the GI50 in the experiment on MDA-MB-435 is > 100 µM (inactive); with OVCAR-3, > 100 µM (inactive); in the experiment with KM12 it was > 100 µM (inactive); with IGROV-1 it was > 100 µM (inactive); in the experiment with T47D, > 100 µM (inactive); in the experiment with HCT-15 it was above 100 µM. For the same molecule, the GI50 with 786-0 and in the experiment on MDA-N was > 100 µM (inactive) each time.
`CC(C)[C@](O)(C(=O)OCC1=CC[N+]2([O-])CC[C@@H](O)[C@@H]12)[C@H](C)O` (stereo not given in full) [INDICINE N-OXIDE]: the GI50 with LOX IMVI is > 7800 µM (inactive); with SF-539, > 9080 µM (inactive); with EKVX, > 9060 µM (inactive); in the experiment with UACC-62 it was 7210 µM (inactive); with NCI-H460, 5960 µM (inactive); in the experiment with M14 it was > 10000 µM (inactive). Also, the GI50 is > 6000 µM (inactive) in the experiment with NCI-H23; 6520 µM (inactive) with CAKI-1; > 10000 µM (inactive) in the experiment on SW-620; > 10000 µM (inactive) in the experiment with MDA-MB-231; 8870 µM (inactive) in the experiment with SN12C; > 10000 µM (inactive) in the experiment with SK-MEL-2. The GI50 with MDA-MB-435 was > 10000 µM (inactive); in the experiment on OVCAR-3, 9910 µM (inactive); with KM12, > 10000 µM (inactive); in the experiment with IGROV-1, > 9330 µM (inactive); in the experiment on T47D it was > 10000 µM (inactive); in the experiment with HCT-15 it was above 10000 µM. Moreover, the results for the GI50 with 786-0 and in the experiment with MDA-N were > 9270 µM (inactive) and > 10000 µM (inactive), respectively.
